Reference: US20250381276A1, “SMALL MOLECULE CONJUGATED CHARGE-ALTERING RELEASABLE TRANSPORTERS FOR NUCLEIC ACID DELIVERY” (The Board of Trustees of the Leland Stanford Junior …, priority 2022, published 2025)

Tested on: peripheral blood lymphocytes
Experiment: Lymphocyte depletion assay (peripheral blood T and B cells)
Assay type: in vivo, BALB/c mice
Settings: single i.v. dose, 24 hours vs baseline; FTY720 12.9 μg, mRNA 7.5 μg/mouse
Protocol: For in vivo administration, CART formulations were prepared adding 18.75 μg of mRNA (18.75 uL of a 1 mg/mL stock) to 205 uL of PBS (pH 5.5) and to this 26.22 uL of CART (from a 2 mmol/L stock in DMSO) were added and mixed for 20 seconds. A total of 100 uL of this formulation was administered i.v. into the tail vein of each mouse, injecting two mice at a time per each treatment group and resulting in a final mRNA dose of 7.5 ug/mouse. CART formulations were injected immediately after mixing (within 20 s).
Blood was drawn from the submandibular vein of the mice immediately before and 24 hours after treatment with Fluc mRNA-CART complexes prepared and administered as above. In both cases approximately 1 mL of venous blood was collected per mouse into FACS tubes pre-filled with 500 μL of Ca^2+-EDTA. […]
One of the potential benefits of functionalizing an mRNA delivery vehicle with a small molecule is to exploit the biological properties of the small molecule for therapeutic purposes. […] Before treatment, mice were bled to measure the baseline levels of circulating T cells (CD3+) and B cells (B220+) calculated through flow cytometry as a percentage of the total peripheral blood lymphocytes. The mice were then bled 24 hours after treatment and the levels of peripheral T and B lymphocytes were measured again (FIG. 5). […]

CCCCCCCCc1ccc(CCC(N)(CO)CO)cc1 [FTY720, fingolimod]
Reduction in the percentage of circulating T cells (CD3+): 84%
